Data published in US20130164259A1, “1,4-S[…] DERIVATIVES AND METHODS OF USE THEREOF” (priority 2009, published 2013).

Molecular target: T1, HCV NS5B polymerase (NS5BΔCT21) (Hepatitis C virus genotype 1b, UniProt Q9WMX2)
T1 construct: A soluble C-terminal 21-amino acid truncated NS5B enzyme form; polyhistidine (C); made in house; host or cells: Escherichia coli
Assay: HCV NS5B Polymerase Inhibition Assay
Assay type: biochemical, HCV-Con 1 isolate
Text: A chemically synthesized 75-mer version, designated DCoH75, whose sequence matches the 3′-end of D-RNA, and DCoH75ddC, where the 3′-terminal cytidine of DCoH75 is replaced by dideoxycytidine, were used for assaying the NS5B enzyme activity as described in Ferrari et al., 12th International Symposium on HCV and Related Viruses, P-306 (2005). The sequence of the template RNA was: 5′-UGUGCCGGUCUUUCUGAACGGGAUAUAAACCUGGCCAGCUUCAUCGAACAAGUUGCCGUGUCUAUGACAUAGAUC-3′ (SEQ ID NO: 1). A soluble C-terminal 21-amino acid truncated NS5B enzyme form (NS5BΔCT21, from HCV-Con 1 isolate, genotype 1b, Genbank accession number AJ238799) was produced and purified from Escherichia coli as C-terminal polyhistidine-tagged fusion protein as described in Ferrari et al., J. Virol. 73:1649-1654 (1999). A typical assay contained 20 mM Hepes pH 7.3, 10 mM MgCl2, 60 mM NaCl, 100 μg/ml BSA, 20 units/ml RNasin, 7.5 mM DTT, 0.1 μM ATP/GTP/UTP, 0.026 μM CTP, 0.25 mM GAU, 0.03 μM RNA template, 20 μCi/ml [^33P]-CTP, 2% DMSO, and 30 or 150 nM NS5B enzyme. Reactions were incubated at 22° C. for 2 hours, then stopped by adding 150 mM EDTA, washed in DE81 filter plate in 0.5M di-basic sodium phosphate buffer, pH 7.0, and counted using Packard TopCount after the addition of scintillation cocktail. Polynucleotide synthesis was monitored by the incorporation of radiolabeled CTP. The effect of the Compounds of Formula (I) on the polymerase activity was evaluated by adding various concentrations of a Compound of Formula (I), typically in 10 serial 2-fold dilutions, to the assay mixture. The starting concentrations ranged from 200 μM to 1 μM. An IC50 value for the inhibitor, defined as the compound concentration that provides 50% inhibition of polymerase activity, was determined by fitting the cpm data to the Hill equation Y=100/(1+10̂((LogIC50−X)*HillSlope)), where X is the logarithm of compound concentration, and Y is the % inhibition. Ferrari et al., 12th International Symposium on HCV and Related Viruses, P-306 (2005) described in detail this assay procedure. It should be noted that such an assay as described is exemplary and not intended to limit the scope of the invention. The skilled practitioner can appreciate that modifications including but not limited to RNA template, primer, nucleotides, NS5B polymerase form, buffer composition, can be made to develop similar assays that yield the same result for the efficacy of the compounds and compositions described in the invention.
NS5B polymerase inhibition data was calculated for the compounds of the present invention using this method and is set forth in the table below.

Structure (SMILES)	IC50
CCOC(=O)c1ccc(NC(=O)c2cccnc2)c(N2CCN(c3cnccn3)CC2)c1 [Compound 69]	> 5 µM
O=C(Nc1ccc(I)cc1N1CCN(c2cnccn2)CC1)c1cccnc1 [Compound 70]	13 µM
